{"source": "ChEMBL document CHEMBL4376803", "about": "“Recent Advances in the Exploration of Therapeutic Analogues of Gramicidin S, an Old but Still Potent Antimicrobial Peptide” (J Med Chem, 2019)", "key": {"Lipopolysaccharide (LPS)": {"molecular_target": "Lipopolysaccharide (LPS)", "assay": "Displacement of Dansyl-polymyxin from Pseudomonas aeruginosa LPS by fluorescence method", "conditions": "read-out: I50"}, "Staphylococcus aureus": {"test_system": "Staphylococcus aureus", "assay": "Antibacterial activity against Staphylococcus aureus K147 after overnight incubation by microtiter dilution method", "format": "functional"}, "[1]": {"assay": "Therapeutic index, ratio of HD100 for hemolytic activity in human RBC to MIC against Candida albicans", "format": "toxicity", "conditions": "human red blood cells, read-out: TI"}, "Erythrocyte": {"test_system": "Erythrocyte", "assay": "Haemolytic activity in human RBC after 24 hrs by visual method", "format": "ADME, cell-based"}, "Pseudomonas aeruginosa": {"test_system": "Pseudomonas aeruginosa", "assay": "Antibacterial activity against Pseudomonas aeruginosa H187 after overnight incubation by microtiter dilution method", "format": "functional"}, "[2]": {"assay": "Therapeutic index, ratio of HD100 for hemolytic activity in human RBC to MIC against Pseudomonas aeruginosa H187", "format": "toxicity", "conditions": "human red blood cells, read-out: TI"}, "Candida albicans": {"test_system": "Candida albicans", "assay": "Antibacterial activity against Candida albicans after overnight incubation by microtiter dilution method", "format": "functional"}, "[3]": {"assay": "Therapeutic index, ratio of HD100 for hemolytic activity in human RBC to MIC against Staphylococcus aureus K147", "format": "toxicity", "conditions": "human red blood cells, read-out: TI"}, "Escherichia coli": {"test_system": "Escherichia coli", "assay": "Antibacterial activity against Escherichia coli UB1005 after overnight incubation by microtiter dilution method", "format": "functional"}, "Enterococcus faecalis": {"test_system": "Enterococcus faecalis", "assay": "Antibacterial activity against Enterococcus faecalis ATCC 29212 after overnight incubation by microtiter dilution method", "format": "functional"}, "[4]": {"assay": "Therapeutic index, ratio of HD100 for hemolytic activity in human RBC to MIC against Escherichia coli UB1005", "format": "toxicity", "conditions": "human red blood cells, read-out: TI"}, "[5]": {"assay": "Therapeutic index, ratio of HD100 for hemolytic activity in human RBC to MIC against Enterococcus faecalis ATCC 29212", "format": "toxicity", "conditions": "human red blood cells, read-out: TI"}}, "note": "Square brackets hold non-standard residues; d marks the D form. Peptide text beside a SMILES is read from it.", "data": [{"smiles": "CC(C)C[C@@H]1NC(=O)[C@H](CCCCN)NC(=O)[C@H](C(C)C)NC(=O)[C@@H]2CCCN2C(=O)[C@@H](Cc2ccc(O)cc2)NC(=O)[C@H](CC(C)C)NC(=O)[C@H](CCCCN)NC(=O)[C@H](C(C)C)NC(=O)[C@H](CCCCN)NC(=O)[C@H](CC(C)C)NC(=O)[C@@H]2CCCN2C(=O)[C@@H](Cc2ccc(O)cc2)NC(=O)[C@H](C(C)C)NC(=O)[C@@H](CCCCN)NC1=O", "note": "(cyclo(KL[dK]V[dY]PLKVKL[dY]PV))", "values": [{"measurement": "IC50", "setting": "Lipopolysaccharide (LPS)", "value": 93, "unit": "µM"}, {"measurement": "MIC", "setting": "Staphylococcus aureus", "value": 100, "unit": "µg/mL"}, {"measurement": "selectivity ratio", "setting": "[1]", "value": 32}, {"measurement": "HD100", "setting": "Erythrocyte", "value": 200, "unit": "µg/mL"}, {"measurement": "MIC", "setting": "Pseudomonas aeruginosa", "value": 25, "unit": "µg/mL"}, {"measurement": "selectivity ratio", "setting": "[2]", "value": 8}, {"measurement": "MIC", "setting": "Candida albicans", "value": 6.2, "unit": "µg/mL"}, {"measurement": "selectivity ratio", "setting": "[3]", "value": 2}, {"measurement": "MIC", "setting": "Escherichia coli", "value": 6.2, "unit": "µg/mL"}, {"measurement": "MIC", "setting": "Enterococcus faecalis", "value": 1.5, "unit": "µg/mL"}, {"measurement": "selectivity ratio", "setting": "[4]", "value": 32}, {"measurement": "selectivity ratio", "setting": "[5]", "value": 133}]}]}
